# From patent publication US7897358B2, “Canine transient receptor potential V2 (cTRPV2) and methods of screening for TRPV2 channel modulators” (Janssen Pharmaceutica N.V., priority 2007, dated 2011)
# What was measured:
# human TRPV2 = biological target: T1, human TRPV2 (Homo sapiens, UniProt Q9Y5S1); conditions: cited from earlier work
# T1 sequence (Q9Y5S1 1-764): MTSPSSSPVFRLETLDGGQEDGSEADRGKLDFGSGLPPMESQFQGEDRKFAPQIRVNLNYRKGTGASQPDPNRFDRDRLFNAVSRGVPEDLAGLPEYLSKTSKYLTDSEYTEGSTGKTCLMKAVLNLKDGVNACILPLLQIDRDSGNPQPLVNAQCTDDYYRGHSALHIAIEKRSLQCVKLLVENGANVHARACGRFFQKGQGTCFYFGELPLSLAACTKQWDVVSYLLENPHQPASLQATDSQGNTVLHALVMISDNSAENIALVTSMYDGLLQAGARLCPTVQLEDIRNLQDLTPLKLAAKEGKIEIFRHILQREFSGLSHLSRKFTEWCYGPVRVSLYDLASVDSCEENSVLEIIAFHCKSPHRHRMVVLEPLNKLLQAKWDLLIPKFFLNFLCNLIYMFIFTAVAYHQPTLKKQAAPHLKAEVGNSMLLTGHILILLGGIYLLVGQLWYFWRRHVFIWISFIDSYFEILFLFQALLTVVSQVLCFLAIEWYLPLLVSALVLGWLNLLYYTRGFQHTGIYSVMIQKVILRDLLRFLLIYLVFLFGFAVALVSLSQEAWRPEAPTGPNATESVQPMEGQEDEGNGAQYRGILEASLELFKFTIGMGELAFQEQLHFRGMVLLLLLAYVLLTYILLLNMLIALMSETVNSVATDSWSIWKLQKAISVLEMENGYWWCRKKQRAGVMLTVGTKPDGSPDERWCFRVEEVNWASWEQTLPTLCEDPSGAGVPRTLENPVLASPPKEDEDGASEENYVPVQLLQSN
# canine TRPV2 (cTRPV2) = experiment: Calcium influx functional assay (FLIPR) in HEK293 cells transiently transfected with cTRPV2; format: cell-based; conditions: recombinant cTRPV2-expressing host cells
# Method: The expression construct, cTRPV2/pcDNA3.1 was then transfected into human embryonic kidney cells (HEK293, ATCC CRL-1573) with FuGene6 transfection reagent (Roche, Indianapolis, Ind.), according to the vendor's protocol. TRPV2-expressing HEK293 cells were cultured in DMEM supplemented with 10% fetal bovine serum, 100 units/ml penicillin and 100 μg/ml streptomycin at 37° C. with 5% CO2, and were analyzed using a calcium influx assay 48-72 hr. post-transfection.
# Transiently transfected cells were seeded in 384-well plates at a density of 1×10^4 cells/well and incubated overnight at 37° C. The following day, the cells were loaded with buffer and calcium dye, as recommended by the vendor (Molecular Devices, Sunnyvale, Calif.), in a final volume of 40 μl and incubated for 30 minutes at room temperature. The fluorescence intensity was measured by FLIPR before, during and after the addition of Δ^9-THC, which was added to the cells at a final concentration of 100 μM.
# mouse TRPV2 = biological target: T2, mouse TRPV2 (Mus musculus, UniProt Q9WTR1); conditions: cited from earlier work
# T2 sequence (Q9WTR1 1-756): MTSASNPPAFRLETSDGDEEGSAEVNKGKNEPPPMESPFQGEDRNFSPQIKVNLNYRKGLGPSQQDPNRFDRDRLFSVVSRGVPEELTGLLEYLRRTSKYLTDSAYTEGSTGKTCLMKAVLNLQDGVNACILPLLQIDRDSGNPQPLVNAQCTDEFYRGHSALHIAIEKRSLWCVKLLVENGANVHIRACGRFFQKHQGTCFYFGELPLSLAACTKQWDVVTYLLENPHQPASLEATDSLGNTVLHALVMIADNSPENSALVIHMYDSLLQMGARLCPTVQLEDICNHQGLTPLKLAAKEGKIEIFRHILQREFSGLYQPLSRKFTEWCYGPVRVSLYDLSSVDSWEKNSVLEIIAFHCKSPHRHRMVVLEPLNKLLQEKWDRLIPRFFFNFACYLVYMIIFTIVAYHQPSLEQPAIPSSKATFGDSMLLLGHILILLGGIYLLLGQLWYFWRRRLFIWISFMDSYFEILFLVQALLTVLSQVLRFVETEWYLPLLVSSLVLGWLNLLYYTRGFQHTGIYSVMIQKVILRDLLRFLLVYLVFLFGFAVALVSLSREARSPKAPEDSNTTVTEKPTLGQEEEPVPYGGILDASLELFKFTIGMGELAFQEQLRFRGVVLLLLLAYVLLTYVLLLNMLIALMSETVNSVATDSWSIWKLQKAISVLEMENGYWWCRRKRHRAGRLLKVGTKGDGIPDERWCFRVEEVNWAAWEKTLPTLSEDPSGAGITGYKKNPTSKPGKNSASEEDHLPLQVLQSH
# rat TRPV2 = biological target: T3, rat TRPV2 (Rattus norvegicus, UniProt Q9WUD2); conditions: cited from earlier work
# T3 sequence (Q9WUD2 1-761): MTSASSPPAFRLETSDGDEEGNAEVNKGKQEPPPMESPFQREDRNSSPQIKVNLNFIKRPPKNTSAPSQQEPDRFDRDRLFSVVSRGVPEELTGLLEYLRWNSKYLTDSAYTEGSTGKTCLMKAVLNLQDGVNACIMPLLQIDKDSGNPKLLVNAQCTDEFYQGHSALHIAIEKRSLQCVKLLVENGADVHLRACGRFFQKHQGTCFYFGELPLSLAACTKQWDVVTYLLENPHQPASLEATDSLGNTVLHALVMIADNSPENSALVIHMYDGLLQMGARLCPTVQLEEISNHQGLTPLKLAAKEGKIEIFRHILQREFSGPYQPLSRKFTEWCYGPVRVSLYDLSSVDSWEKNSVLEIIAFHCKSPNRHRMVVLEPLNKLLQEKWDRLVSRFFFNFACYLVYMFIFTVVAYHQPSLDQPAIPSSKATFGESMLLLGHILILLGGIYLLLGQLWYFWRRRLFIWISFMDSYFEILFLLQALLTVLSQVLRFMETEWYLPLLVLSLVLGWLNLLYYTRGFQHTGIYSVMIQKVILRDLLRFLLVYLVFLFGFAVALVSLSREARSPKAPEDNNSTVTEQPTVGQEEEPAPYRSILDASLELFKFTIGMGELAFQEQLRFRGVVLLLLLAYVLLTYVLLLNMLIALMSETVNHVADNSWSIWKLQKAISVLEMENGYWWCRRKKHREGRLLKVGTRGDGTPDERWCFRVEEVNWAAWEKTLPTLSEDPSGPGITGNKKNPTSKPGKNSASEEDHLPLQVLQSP
smiles,measurement,setting,value
"CCCCCc1cc(O)c2c(c1)OC(C)(C)[C@@H]1CCC(C)=C[C@@H]21 [Δ^9-THC, Δ^9-tetrahydrocannabinol]",activation of human TRPV2 (selective agonist),human TRPV2,activate
same,response of the recombinant TRPV2 cell system to agonist,canine TRPV2 (cTRPV2),responded to Δ^9-THC in a dose-dependent manner
same,activation of mouse TRPV2 (selective agonist),mouse TRPV2,activate
same,activation of rat TRPV2 (selective agonist),rat TRPV2,activate
